Assay results: ChEMBL document CHEMBL1201862, “PubChem BioAssay data set” (2004)
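1) Cells in 96-well plates. 2) Compound, 48 h, 5 concentrations. 3) Linear interpolation between surrounding doses. 4) Unreached endpoint = highest concentration. At the GI50, growth is halved.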 Activity calls are given as the source filed them. Rule as the data show it: active = GI50 up to about 1.1 µM and inactive = higher.

How the values were obtained:
Assay in all cases: growth of human tumour cells (NCI), 48 h
[1] = system: RPMI-8226
[2] = system: OVCAR-5
[3] = system: UO-31
[4] = system: SF-295
[5] = system: MOLT-4
[6] = system: XF498
[7] = system: KM12
[8] = system: SN12C
[9] = system: SK-MEL-5
[10] = system: DMS-273
[11] = system: RXF 631
[12] = system: DMS-114
[13] = system: SK-MEL-2
[14] = system: SNB-19
[15] = system: LXFL 529
[16] = system: DLD-1
[17] = system: M14
[18] = system: SR
[19] = system: UACC-62
[20] = system: SF-539
[21] = system: HL-60
[22] = system: IGROV-1
[23] = system: SF-268
[24] = system: SNB-75
[25] = system: OVCAR-8
[26] = system: SNB-78
[27] = system: HCT-116
[28] = system: HT-29
[29] = system: M19-MEL
[30] = system: TK-10
[31] = system: LOX IMVI
[32] = system: EKVX
[33] = system: NCI-H460
[34] = system: U-251
[35] = system: 786-0
[36] = system: HCT-15
[37] = system: HOP-62
[38] = system: SW-620
[39] = system: OVCAR-4
[40] = system: SK-OV-3
[41] = system: NCI-H522
[42] = system: NCI-H226
[43] = system: OVCAR-3
[44] = system: HCC 2998
[45] = system: A549
[46] = system: CAKI-1
[47] = system: UACC-257
[48] = system: ACHN
[49] = system: A498
[50] = system: NCI-H23
[51] = system: KM-20L2
[52] = system: SK-MEL-28
[53] = system: K562
[54] = system: COLO 205
[55] = system: CCRF-CEM
[56] = system: HOP-18
[57] = system: HOP-92
[58] = system: RXF 393
[59] = system: Malme-3M

O=C(O)/C(=C/c1ccccc1[N+](=O)[O-])c1ccccc1
GI50 [1]: > 100 µM (inactive)
GI50 [2]: > 100 µM (inactive)
GI50 [3]: > 100 µM (inactive)
GI50 [4]: > 100 µM (inactive)
GI50 [5]: > 100 µM (inactive)
GI50 [6]: > 100 µM (inactive)
GI50 [7]: > 100 µM (inactive)
GI50 [8]: > 100 µM (inactive)
GI50 [9]: > 100 µM (inactive)
GI50 [10]: > 100 µM (inactive)
GI50 [11]: > 100 µM (inactive)
GI50 [12]: > 100 µM (inactive)
GI50 [13]: > 100 µM (inactive)
GI50 [14]: > 100 µM (inactive)
GI50 [15]: > 100 µM (inactive)
GI50 [16]: > 100 µM (inactive)
GI50 [17]: > 100 µM (inactive)
GI50 [18]: > 100 µM (inactive)
GI50 [19]: > 100 µM (inactive)
GI50 [20]: > 100 µM (inactive)
GI50 [21]: > 100 µM (inactive)
GI50 [22]: > 100 µM (inactive)
GI50 [23]: > 100 µM (inactive)
GI50 [24]: > 100 µM (inactive)
GI50 [25]: > 100 µM (inactive)
GI50 [26]: > 100 µM (inactive)
GI50 [27]: > 100 µM (inactive)
GI50 [28]: > 100 µM (inactive)
GI50 [29]: > 100 µM (inactive)
GI50 [30]: > 100 µM (inactive)
GI50 [31]: > 100 µM (inactive)
GI50 [32]: > 100 µM (inactive)
GI50 [33]: > 100 µM (inactive)
GI50 [34]: > 100 µM (inactive)
GI50 [35]: > 100 µM (inactive)
GI50 [36]: > 100 µM
GI50 [37]: > 100 µM (inactive)
GI50 [38]: > 100 µM (inactive)
GI50 [39]: > 100 µM (inactive)
GI50 [40]: > 100 µM (inactive)
GI50 [41]: > 100 µM (inactive)
GI50 [42]: > 100 µM (inactive)
GI50 [43]: > 100 µM (inactive)
GI50 [44]: > 100 µM (inactive)
GI50 [45]: > 100 µM (inactive)
GI50 [46]: > 100 µM (inactive)
GI50 [47]: > 100 µM (inactive)
GI50 [48]: > 100 µM (inactive)
GI50 [49]: > 100 µM (inactive)
GI50 [50]: > 100 µM (inactive)
GI50 [51]: > 100 µM (inactive)
GI50 [52]: > 100 µM (inactive)
GI50 [53]: > 100 µM (inactive)
GI50 [54]: > 100 µM (inactive)

CCN(CC)C(=O)COc1ccc(Br)cc1Br
GI50 [55]: > 100 µM (inactive)
GI50 [1]: > 100 µM (inactive)
GI50 [2]: > 100 µM (inactive)
GI50 [3]: > 100 µM (inactive)
GI50 [4]: > 100 µM (inactive)
GI50 [5]: > 100 µM (inactive)
GI50 [7]: > 100 µM (inactive)
GI50 [8]: > 100 µM (inactive)
GI50 [9]: > 100 µM (inactive)
GI50 [10]: > 100 µM (inactive)
GI50 [11]: > 100 µM (inactive)
GI50 [12]: > 100 µM (inactive)
GI50 [13]: > 100 µM (inactive)
GI50 [14]: > 100 µM (inactive)
GI50 [15]: > 100 µM (inactive)
GI50 [16]: > 100 µM (inactive)
GI50 [17]: > 100 µM (inactive)
GI50 [56]: > 100 µM (inactive)
GI50 [18]: > 100 µM (inactive)
GI50 [19]: 38.8 µM (inactive)
GI50 [20]: > 100 µM (inactive)
GI50 [21]: 83.9 µM (inactive)
GI50 [57]: 87.5 µM (inactive)
GI50 [23]: > 100 µM (inactive)
GI50 [24]: 83.6 µM (inactive)
GI50 [26]: > 100 µM (inactive)
GI50 [27]: > 100 µM (inactive)
GI50 [28]: > 100 µM (inactive)
GI50 [29]: > 100 µM (inactive)
GI50 [58]: > 100 µM (inactive)
GI50 [30]: > 100 µM (inactive)
GI50 [31]: > 100 µM (inactive)
GI50 [32]: 7.91 µM (inactive)
GI50 [33]: > 100 µM (inactive)
GI50 [34]: > 100 µM (inactive)
GI50 [35]: > 100 µM (inactive)
GI50 [36]: > 100 µM
GI50 [37]: > 100 µM (inactive)
GI50 [38]: > 100 µM (inactive)
GI50 [39]: > 100 µM (inactive)
GI50 [40]: > 100 µM (inactive)
GI50 [41]: 50.1 µM (inactive)
GI50 [42]: > 100 µM (inactive)
GI50 [43]: > 100 µM (inactive)
GI50 [44]: > 100 µM (inactive)
GI50 [45]: > 100 µM (inactive)
GI50 [46]: > 100 µM (inactive)
GI50 [47]: > 100 µM (inactive)
GI50 [48]: > 100 µM (inactive)
GI50 [49]: > 100 µM (inactive)
GI50 [50]: 82.6 µM (inactive)
GI50 [51]: > 100 µM (inactive)
GI50 [52]: > 100 µM (inactive)
GI50 [53]: > 100 µM (inactive)
GI50 [59]: > 100 µM (inactive)
GI50 [54]: > 100 µM (inactive)
